The test relates to L1210 leukemia ip in BDF1 mice, survival T/C. Put plainly: NCI In Vivo Anticancer Drug Screen. Data for tumor model L1210 Leukemia (intraperitoneal) in B6D2F1 (BDF1) mice. As to conditions: higher = longer survival. The method, boiled down: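 Mice bearing the transplanted tumor received compound or vehicle. Survival of the treated group was divided by that of the vehicle-treated control group to give the ratio.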

The mark [1] stands for this setting: endpoint: mean survival time, dose: 100.0 mg/kg/injection, schedule: Q04DX003 (ip), vehicle: saline.
Setting [2] is: endpoint: mean survival time, dose: 400.0 mg/kg/injection, schedule: Q04DX003 (ip), vehicle: saline.

Values joined by “and” are separate entries in the source; they are usually repeats but may differ in a detail not shown here. Equal entries are not always repeated. Toxic doses and inconclusive results are not listed.

On to `COc1cc2cc3c4cc(OC)c(OC)cc4cc[n+]3c(C)c2cc1OC`, for which the T/C was 100 % of control (endpoint: mean survival time, dose: 12.0 mg/kg/injection, schedule: Q01DX009 (ip), vehicle: saline); 117 % of control (endpoint: mean survival time, dose: 12.5 mg/kg/injection, schedule: Q01DX009 (ip), vehicle: water); 122 % of control (endpoint: mean survival time, dose: 16.0 mg/kg/injection, schedule: Q03HX008 (ip), vehicle: saline); 122 % of control (endpoint: mean survival time, dose: 16.0 mg/kg/injection, schedule: Q03HX016 (ip), vehicle: saline); 117 % of control (endpoint: mean survival time, dose: 25.0 mg/kg/injection, schedule: Q01DX009 (ip), vehicle: saline); 118 % of control (endpoint: mean survival time, dose: 32.0 mg/kg/injection, schedule: Q03HX008 (ip), vehicle: saline). Further, the T/C runs as follows: (endpoint: mean survival time, dose: 32.0 mg/kg/injection, schedule: Q03HX024 (ip), vehicle: saline) 124 % of control; (endpoint: mean survival time, dose: 50.0 mg/kg/injection, schedule: Q01DX009 (ip), vehicle: saline sonified) 115 % of control; (endpoint: mean survival time, dose: 50.0 mg/kg/injection, schedule: Q04DX002 (ip), vehicle: saline) 120 % of control; (endpoint: mean survival time, dose: 50.0 mg/kg/injection, schedule: Q04DX003 (ip), vehicle: saline) 116 % of control; (endpoint: mean survival time, dose: 64.0 mg/kg/injection, schedule: Q03HX008 (ip), vehicle: saline) 122 % of control; (endpoint: mean survival time, dose: 100.0 mg/kg/injection, schedule: Q01DX009 (ip), vehicle: saline sonified) 115 % of control. Also, the T/C is, setting by setting: (endpoint: mean survival time, dose: 100.0 mg/kg/injection, schedule: Q01DX009 (ip), vehicle: saline) 110 % of control and 119 % of control; (endpoint: mean survival time, dose: 100.0 mg/kg/injection, schedule: Q04DX002 (ip), vehicle: saline) 123 % of control; under setting [1], 108 % of control; (endpoint: mean survival time, dose: 128.0 mg/kg/injection, schedule: Q01DX001 (ip), vehicle: saline) 117 % of control; (endpoint: mean survival time, dose: 128.0 mg/kg/injection, schedule: Q01DX009 (ip), vehicle: saline) 120 % of control; (endpoint: mean survival time, dose: 128.0 mg/kg/injection, schedule: Q03HX008 (ip), vehicle: saline) 124 % of control. Moreover, the T/C by setting is: (endpoint: mean survival time, dose: 128.0 mg/kg/injection, schedule: Q04DX003 (ip), vehicle: saline) 114 % of control; (endpoint: mean survival time, dose: 128.0 mg/kg/injection, schedule: Q08DX002 (ip), vehicle: saline) 122 % of control; (endpoint: mean survival time, dose: 200.0 mg/kg/injection, schedule: Q01DX009 (ip), vehicle: saline sonified) 112 % of control; (endpoint: mean survival time, dose: 200.0 mg/kg/injection, schedule: Q04DX002 (ip), vehicle: saline) 120 % of control; (endpoint: mean survival time, dose: 256.0 mg/kg/injection, schedule: Q01DX001 (ip), vehicle: saline) 117 % of control; (endpoint: mean survival time, dose: 256.0 mg/kg/injection, schedule: Q08DX002 (ip), vehicle: saline) 118 % of control. Further, the T/C reads like this: (endpoint: mean survival time, dose: 400.0 mg/kg/injection, schedule: Q01DX009 (ip), vehicle: water) 151 % of control; (endpoint: mean survival time, dose: 400.0 mg/kg/injection, schedule: Q04DX002 (ip), vehicle: saline) 116 % of control and 118 % of control; under setting [2], 120 % of control; (endpoint: mean survival time, dose: 512.0 mg/kg/injection, schedule: Q01DX001 (ip), vehicle: saline) 119 % of control; (endpoint: mean survival time, dose: 512.0 mg/kg/injection, schedule: Q08DX002 (ip), vehicle: saline) 120 % of control; (endpoint: mean survival time, dose: 1024.0 mg/kg/injection, schedule: Q04DX003 (ip), vehicle: saline) 106 % of control. For the same compound, the T/C was 122 % of control (endpoint: median survival time, dose: 16.0 mg/kg/injection, schedule: Q03HX008 (ip), vehicle: saline); 122 % of control (endpoint: median survival time, dose: 16.0 mg/kg/injection, schedule: Q03HX024 (ip), vehicle: saline); 122 % of control (endpoint: median survival time, dose: 32.0 mg/kg/injection, schedule: Q01DX009 (ip), vehicle: saline); 105 % of control and 109 % of control (endpoint: median survival time, dose: 50.0 mg/kg/injection, schedule: Q01DX009 (ip), vehicle: saline); 120 % of control (endpoint: median survival time, dose: 62.5 mg/kg/injection, schedule: Q01DX009 (ip), vehicle: saline); 122 % of control (endpoint: median survival time, dose: 64.0 mg/kg/injection, schedule: Q01DX001 (ip), vehicle: saline). In addition, the T/C (endpoint: median survival time, dose: 64.0 mg/kg/injection, schedule: Q01DX009 (ip), vehicle: saline) is 122 % of control; the T/C (endpoint: median survival time, dose: 64.0 mg/kg/injection, schedule: Q01DX009 (oral), vehicle: saline) was 100 % of control; the T/C (endpoint: median survival time, dose: 64.0 mg/kg/injection, schedule: Q01DX009 (sc), vehicle: saline) is 100 % of control; the T/C (endpoint: median survival time, dose: 64.0 mg/kg/injection, schedule: Q03HX008 (ip), vehicle: saline) is 122 % of control; the T/C (endpoint: median survival time, dose: 64.0 mg/kg/injection, schedule: Q04DX003 (ip), vehicle: saline) was 122 % of control; the T/C (endpoint: median survival time, dose: 64.0 mg/kg/injection, schedule: Q08DX002 (ip), vehicle: saline) was 111 % of control. For the same compound, the T/C reads like this: (endpoint: median survival time, dose: 125.0 mg/kg/injection, schedule: Q01DX009 (ip), vehicle: saline) 120 % of control; (endpoint: median survival time, dose: 128.0 mg/kg/injection, schedule: Q01DX001 (ip), vehicle: saline) 122 % of control; (endpoint: median survival time, dose: 128.0 mg/kg/injection, schedule: Q01DX009 (ip), vehicle: saline) 122 % of control; (endpoint: median survival time, dose: 128.0 mg/kg/injection, schedule: Q01DX009 (oral), vehicle: saline) 105 % of control; (endpoint: median survival time, dose: 128.0 mg/kg/injection, schedule: Q01DX009 (sc), vehicle: saline) 100 % of control; (endpoint: median survival time, dose: 128.0 mg/kg/injection, schedule: Q04DX003 (ip), vehicle: saline) 122 % of control. For the same compound, the T/C was 122 % of control (endpoint: median survival time, dose: 128.0 mg/kg/injection, schedule: Q08DX002 (ip), vehicle: saline); 111 % of control (endpoint: median survival time, dose: 256.0 mg/kg/injection, schedule: Q01DX009 (oral), vehicle: saline); 94 % of control (endpoint: median survival time, dose: 256.0 mg/kg/injection, schedule: Q01DX009 (sc), vehicle: saline); 122 % of control (endpoint: median survival time, dose: 256.0 mg/kg/injection, schedule: Q08DX002 (ip), vehicle: saline); 122 % of control (endpoint: median survival time, dose: 512.0 mg/kg/injection, schedule: Q01DX001 (ip), vehicle: saline); 100 % of control (endpoint: median survival time, dose: 512.0 mg/kg/injection, schedule: Q01DX009 (oral), vehicle: saline). For the same compound, the T/C runs as follows: (endpoint: median survival time, dose: 512.0 mg/kg/injection, schedule: Q01DX009 (sc), vehicle: saline) 100 % of control; (endpoint: median survival time, dose: 512.0 mg/kg/injection, schedule: Q04DX003 (ip), vehicle: saline) 122 % of control; (endpoint: median survival time, dose: 1024.0 mg/kg/injection, schedule: Q01DX009 (oral), vehicle: saline) 88 % of control; (endpoint: median survival time, dose: 1024.0 mg/kg/injection, schedule: Q01DX009 (sc), vehicle: saline) 100 % of control; (endpoint: median survival time, dose: 1024.0 mg/kg/injection, schedule: Q08DX002 (ip), vehicle: saline) 122 % of control; (endpoint: median survival time, dose: 1600.0 mg/kg/injection, schedule: Q01DX009 (ip), vehicle: saline) 90 % of control.
With `C=CC/C=C/CCC`, the T/C (endpoint: mean survival time, dose: 50.0 mg/kg/injection, schedule: Q01DX001 (ip), vehicle: carboxymethylcellulose (CMC)) is 88 % of control; the T/C (endpoint: mean survival time, dose: 200.0 mg/kg/injection, schedule: Q01DX001 (ip), vehicle: carboxymethylcellulose (CMC)) was 88 % of control; the T/C (endpoint: mean survival time, dose: 400.0 mg/kg/injection, schedule: Q01DX001 (ip), vehicle: carboxymethylcellulose (CMC)) is 90 % of control.
Take `CS(=N)(=O)c1ccccc1` (configuration not stated): the T/C (endpoint: mean survival time, dose: 100.0 mg/kg/injection, schedule: Q01DX009 (ip), vehicle: other) is 99 % of control; the T/C under setting [1] is 97 % of control; the T/C (endpoint: mean survival time, dose: 200.0 mg/kg/injection, schedule: Q01DX009 (ip), vehicle: other) is 95 % of control; the T/C (endpoint: mean survival time, dose: 200.0 mg/kg/injection, schedule: Q04DX003 (ip), vehicle: saline) is 100 % of control; the T/C (endpoint: mean survival time, dose: 400.0 mg/kg/injection, schedule: Q01DX009 (ip), vehicle: other) was 97 % of control; the T/C under setting [2] is 97 % of control.
As to `COc1ccc(NC(=O)Nc2ccccc2C(N)=O)cc1`, the T/C (endpoint: mean survival time, dose: 50.0 mg/kg/injection, schedule: Q01DX009 (ip), vehicle: Klucel (hydroxypropylcellulose) (HPC)) was 93 % of control; the T/C (endpoint: mean survival time, dose: 100.0 mg/kg/injection, schedule: Q01DX009 (ip), vehicle: Klucel (hydroxypropylcellulose) (HPC)) was 93 % of control; the T/C (endpoint: mean survival time, dose: 200.0 mg/kg/injection, schedule: Q01DX009 (ip), vehicle: Klucel (hydroxypropylcellulose) (HPC)) was 96 % of control.

(Values after PubChem BioAssay AID248 (DTP/NCI, 2004).)
